pIC50, pKi: −log10 of the molar value. ≈ marks a conversion by molar mass, not a printed value. Calls of active or inactive are those of the source. The rule behind the calls is not given here.
What was measured:
Candida tropicalis [1] = experiment: Inhibition of Candida tropicalis ATCC750 chitin synthase at 300 ug/ml using UDP-GlcNAc as substrate incubated for 1 hr by microplate reader analysis relative to control; conditions: dose 300.0 µg/ml
[2] = Inhibition of Candida tropicalis ATCC750 chitin synthase using UDP-GlcNAc as substrate incubated for 1 hr by microplate reader analysis
Candida albicans [3] = experiment: Antifungal activity against Candida albicans ATCC 76615 assessed as reduction in fungal growth incubated for 24 hrs by two fold broth dilution method; type: functional
Aspergillus flavus [4] = experiment: Antifungal activity against Aspergillus flavus ATCC 16870 assessed as reduction in fungal growth incubated for 24 hrs by two fold broth dilution method; type: functional
Aspergillus fumigatus [5] = experiment: Antifungal activity against Aspergillus fumigatus GIMCC 3.19 assessed as reduction in fungal growth incubated for 24 hrs by two fold broth dilution method; type: functional
Cryptococcus neoformans [6] = experiment: Antifungal activity against Cryptococcus neoformans ATCC 32719 assessed as reduction in fungal growth incubated for 24 hrs by two fold broth dilution method; type: functional
Candida albicans [7] = experiment: Antifungal activity against Candida albicans ATCC 76615 assessed as reduction in fungal growth in presence of sorbitol incubated for 24 hrs by two fold broth dilution method; type: functional
Aspergillus flavus [8] = experiment: Antifungal activity against Aspergillus flavus ATCC 16870 assessed as reduction in fungal growth in presence of sorbitol incubated for 24 hrs by two fold broth dilution method; type: functional
Aspergillus fumigatus [9] = experiment: Antifungal activity against Aspergillus fumigatus GIMCC 3.19 assessed as reduction in fungal growth in presence of sorbitol incubated for 24 hrs by two fold broth dilution method; type: functional
Cryptococcus neoformans [10] = experiment: Antifungal activity against Cryptococcus neoformans ATCC 32719 assessed as reduction in fungal growth in presence of sorbitol incubated for 24 hrs by two fold broth dilution method; type: functional
Candida albicans [11] = experiment: Antifungal activity against fluconazole resistant Candida albicans ATCC 76615 assessed as reduction in fungal growth incubated for 24 hrs by two fold broth dilution method; type: functional
Aspergillus flavus [12] = experiment: Antifungal activity against fluconazole resistant Aspergillus flavus ATCC 16870 assessed as reduction in fungal growth incubated for 24 hrs by two fold broth dilution method; type: functional
Aspergillus fumigatus [13] = experiment: Antifungal activity against fluconazole resistant Aspergillus fumigatus GIMCC 3.19 assessed as reduction in fungal growth incubated for 24 hrs by two fold broth dilution method; type: functional
Cryptococcus neoformans [14] = experiment: Antifungal activity against fluconazole resistant Cryptococcus neoformans ATCC 32719 assessed as reduction in fungal growth incubated for 24 hrs by two fold broth dilution method; type: functional
Candida albicans [15] = experiment: Antifungal activity against micafungin resistant Candida albicans ATCC 76615 assessed as reduction in fungal growth incubated for 24 hrs by two fold broth dilution method; type: functional
Candida albicans [16] = experiment: Antifungal activity against Candida albicans ATCC 76615 incubated for 72 hrs in presence of fluconazole by checker board assay; type: functional
Aspergillus flavus [17] = experiment: Antifungal activity against Aspergillus flavus ATCC 16870 incubated for 72 hrs in presence of fluconazole by checker board assay; type: functional
Aspergillus fumigatus [18] = experiment: Antifungal activity against Aspergillus fumigatus GIMCC 3.19 incubated for 72 hrs in presence of fluconazole by checker board assay; type: functional
Cryptococcus neoformans [19] = experiment: Antifungal activity against Cryptococcus neoformans ATCC 32719 incubated for 72 hrs in presence of fluconazole by checker board assay; type: functional
Candida albicans [20] = experiment: Antifungal activity against Candida albicans ATCC 76615 assessed as fluconazole MIC incubated for 72 hrs by checker board assay; type: functional
Aspergillus flavus [21] = experiment: Antifungal activity against Aspergillus flavus ATCC 16870 assessed as fluconazole MIC incubated for 72 hrs by checker board assay; type: functional
Aspergillus fumigatus [22] = experiment: Antifungal activity against Aspergillus fumigatus GIMCC 3.19 assessed as fluconazole MIC incubated for 72 hrs by checker board assay; type: functional
Cryptococcus neoformans [23] = experiment: Antifungal activity against Cryptococcus neoformans ATCC 32719 assessed as fluconazole MIC incubated for 72 hrs by checker board assay; type: functional
Cryptococcus neoformans [24] = experiment: Synergistic antifungal activity against Cryptococcus neoformans ATCC 32719 assessed as fractional inhibitory concentration index incubated for 72 hrs in presence of fluconazole by checker board assay; type: functional
Candida albicans [25] = experiment: Synergistic antifungal activity against Candida albicans ATCC 76615 assessed as fractional inhibitory concentration index incubated for 72 hrs in presence of fluconazole by checker board assay; type: functional
Aspergillus flavus [26] = experiment: Synergistic antifungal activity against Aspergillus flavus ATCC 16870 assessed as fractional inhibitory concentration index incubated for 72 hrs in presence of fluconazole by checker board assay; type: functional
Aspergillus fumigatus [27] = experiment: Synergistic antifungal activity against Aspergillus fumigatus GIMCC 3.19 assessed as fractional inhibitory concentration index incubated for 72 hrs in presence of fluconazole by checker board assay; type: functional
Candida albicans [28] = experiment: Antifungal activity against Candida albicans ATCC 76615 incubated for 72 hrs in presence of polyoxin B by checker board assay; type: functional
Aspergillus flavus [29] = experiment: Antifungal activity against Aspergillus flavus ATCC 16870 incubated for 72 hrs in presence of polyoxin B by checker board assay; type: functional
Aspergillus fumigatus [30] = experiment: Antifungal activity against Aspergillus fumigatus GIMCC 3.19 incubated for 72 hrs in presence of polyoxin B by checker board assay; type: functional
Cryptococcus neoformans [31] = experiment: Antifungal activity against Cryptococcus neoformans ATCC 32719 incubated for 72 hrs in presence of polyoxin B by checker board assay; type: functional
Candida albicans [32] = experiment: Synergistic antifungal activity against Candida albicans ATCC 76615 assessed as fractional inhibitory concentration index incubated for 72 hrs in presence of polyoxin B by checker board assay; type: functional
Aspergillus flavus [33] = experiment: Synergistic antifungal activity against Aspergillus flavus ATCC 16870 assessed as fractional inhibitory concentration index incubated for 72 hrs in presence of polyoxin B by checker board assay; type: functional
Aspergillus fumigatus [34] = experiment: Synergistic antifungal activity against Aspergillus fumigatus GIMCC 3.19 assessed as fractional inhibitory concentration index incubated for 72 hrs in presence of polyoxin B by checker board assay; type: functional
Cryptococcus neoformans [35] = experiment: Synergistic antifungal activity against Cryptococcus neoformans ATCC 32719 assessed as fractional inhibitory concentration index incubated for 72 hrs in presence of polyoxin B by checker board assay; type: functional
Candida albicans [36] = experiment: Antifungal activity against Candida albicans ATCC 76615 assessed as polyoxin B MIC incubated for 72 hrs by checker board assay; type: functional
Aspergillus flavus [37] = experiment: Antifungal activity against Aspergillus flavus ATCC 16870 assessed as polyoxin B MIC incubated for 72 hrs by checker board assay; type: functional
Aspergillus fumigatus [38] = experiment: Antifungal activity against Aspergillus fumigatus GIMCC 3.19 assessed as polyoxin B MIC incubated for 72 hrs by checker board assay; type: functional
Cryptococcus neoformans [39] = experiment: Antifungal activity against Cryptococcus neoformans ATCC 32719 assessed as polyoxin B MIC incubated for 72 hrs by checker board assay; type: functional
[40] = Binding affinity to Candida tropicalis ATCC750 chitin synthase assessed as inhibition constant using UDP-GlcNAc as substrate incubated for 10 hrs by Lineweaver-burk plot analysis
Candida tropicalis [41] = experiment: Noncompetitive inhibition of Candida tropicalis ATCC750 assessed as decrease in Vmax with constant Km at 0.05 to 0.15 mM using UDP-GlcNAc as substrate incubated for 10 hrs by Lineweaver-burk plot analysis; conditions: dose 0.05-0.15 mM

## O=C(/C=C/C(=O)N1CCCC12Cc1ccccc1NC2=O)Nc1ccc(F)cc1 (centres undefined)
Candida tropicalis [1]
  inhibition: 77.9%
[2]
  pIC50: 3.89
Candida albicans [3]
  MIC: 4 µg/mL (≈ 10.2 µM)
Aspergillus flavus [4]
  MIC: 8 µg/mL (≈ 20.3 µM)
Aspergillus fumigatus [5]
  MIC: 8 µg/mL (≈ 20.3 µM)
Cryptococcus neoformans [6]
  MIC: 8 µg/mL (≈ 20.3 µM)
Candida albicans [7]
  MIC: 32 µg/mL
Aspergillus flavus [8]
  MIC: 64 µg/mL
Aspergillus fumigatus [9]
  MIC: 128 µg/mL
Cryptococcus neoformans [10]
  MIC: 64 µg/mL
Candida albicans [11]
  MIC: 64 µg/mL (≈ 163 µM)
Aspergillus flavus [12]
  MIC: 32 µg/mL (≈ 81.3 µM)
Aspergillus fumigatus [13]
  MIC: 256 µg/mL (≈ 651 µM)
Cryptococcus neoformans [14]
  MIC: 256 µg/mL (≈ 651 µM)
Candida albicans [15]
  MIC: 64 µg/mL (≈ 163 µM)
Candida albicans [16]
  MIC: 2 µg/mL
Aspergillus flavus [17]
  MIC: 4 µg/mL
Aspergillus fumigatus [18]
  MIC: 2 µg/mL
Cryptococcus neoformans [19]
  MIC: 2 µg/mL
Candida albicans [20]
  MIC: 1 µg/mL
Aspergillus flavus [21]
  MIC: 2 µg/mL
Aspergillus fumigatus [22]
  MIC: 2 µg/mL
Cryptococcus neoformans [23]
  MIC: 4 µg/mL
Cryptococcus neoformans [24]
  fractional inhibitory concentration index (FICI): 0.75
Candida albicans [25]
  fractional inhibitory concentration index (FICI): 0.75
Aspergillus flavus [26]
  fractional inhibitory concentration index (FICI): 0.75
Aspergillus fumigatus [27]
  fractional inhibitory concentration index (FICI): 0.75
Candida albicans [28]
  MIC: 1 µg/mL
Aspergillus flavus [29]
  MIC: 8 µg/mL
Aspergillus fumigatus [30]
  MIC: 4 µg/mL
Cryptococcus neoformans [31]
  MIC: 8 µg/mL
Candida albicans [32]
  fractional inhibitory concentration index (FICI): 0.75
Aspergillus flavus [33]
  fractional inhibitory concentration index (FICI): 1.5
Aspergillus fumigatus [34]
  fractional inhibitory concentration index (FICI): 0.75
Cryptococcus neoformans [35]
  fractional inhibitory concentration index (FICI): 1.5
Candida albicans [36]
  MIC: 4 µg/mL
Aspergillus flavus [37]
  MIC: 4 µg/mL
Aspergillus fumigatus [38]
  MIC: 2 µg/mL
Cryptococcus neoformans [39]
  MIC: 8 µg/mL

## O=C(/C=C/C(=O)N1CCCC12Cc1ccccc1NC2=O)Nc1cccc([N+](=O)[O-])c1 (centres undefined)
Candida tropicalis [1]
  inhibition: 83.4%
[2]
  pIC50: 4.00
[40]
  pKi: 3.96
Candida albicans [3]
  MIC: 2 µg/mL (≈ 4.76 µM)
Aspergillus flavus [4]
  MIC: 4 µg/mL (≈ 9.51 µM)
Aspergillus fumigatus [5]
  MIC: 4 µg/mL (≈ 9.51 µM)
Cryptococcus neoformans [6]
  MIC: 8 µg/mL (≈ 19 µM)
Candida albicans [7]
  MIC: 16 µg/mL
Aspergillus flavus [8]
  MIC: 64 µg/mL
Aspergillus fumigatus [9]
  MIC: 128 µg/mL
Cryptococcus neoformans [10]
  MIC: 64 µg/mL
Candida albicans [11]
  MIC: 32 µg/mL (≈ 76.1 µM)
Aspergillus flavus [12]
  MIC: 32 µg/mL (≈ 76.1 µM)
Aspergillus fumigatus [13]
  MIC: 32 µg/mL (≈ 76.1 µM)
Cryptococcus neoformans [14]
  MIC: 64 µg/mL (≈ 152 µM)
Candida albicans [15]
  MIC: 32 µg/mL (≈ 76.1 µM)
Candida albicans [16]
  MIC: 1 µg/mL
Aspergillus flavus [17]
  MIC: 2 µg/mL
Aspergillus fumigatus [18]
  MIC: 0.5 µg/mL
Cryptococcus neoformans [19]
  MIC: 4 µg/mL
Candida albicans [20]
  MIC: 1 µg/mL
Aspergillus flavus [21]
  MIC: 1 µg/mL
Aspergillus fumigatus [22]
  MIC: 4 µg/mL
Cryptococcus neoformans [23]
  MIC: 1 µg/mL
Cryptococcus neoformans [24]
  fractional inhibitory concentration index (FICI): 0.63
Candida albicans [25]
  fractional inhibitory concentration index (FICI): 0.75
Aspergillus flavus [26]
  fractional inhibitory concentration index (FICI): 0.63
Aspergillus fumigatus [27]
  fractional inhibitory concentration index (FICI): 1.13
Candida albicans [28]
  MIC: 2 µg/mL
Aspergillus flavus [29]
  MIC: 4 µg/mL
Aspergillus fumigatus [30]
  MIC: 4 µg/mL
Cryptococcus neoformans [31]
  MIC: 4 µg/mL
Candida albicans [32]
  fractional inhibitory concentration index (FICI): 1.5
Aspergillus flavus [33]
  fractional inhibitory concentration index (FICI): 1.5
Aspergillus fumigatus [34]
  fractional inhibitory concentration index (FICI): 1.5
Cryptococcus neoformans [35]
  fractional inhibitory concentration index (FICI): 0.75
Candida tropicalis [41]
  inhibition: Active
Candida albicans [36]
  MIC: 4 µg/mL
Aspergillus flavus [37]
  MIC: 4 µg/mL
Aspergillus fumigatus [38]
  MIC: 4 µg/mL
Cryptococcus neoformans [39]
  MIC: 4 µg/mL

## O=C(/C=C/C(=O)N1CCCC12Cc1ccccc1NC2=O)Nc1ccccc1[N+](=O)[O-] (centres undefined)
Candida tropicalis [1]
  inhibition: 80.9%
[2]
  pIC50: 3.96
Candida albicans [3]
  MIC: 4 µg/mL (≈ 9.51 µM)
Aspergillus flavus [4]
  MIC: 4 µg/mL (≈ 9.51 µM)
Aspergillus fumigatus [5]
  MIC: 4 µg/mL (≈ 9.51 µM)
Cryptococcus neoformans [6]
  MIC: 16 µg/mL (≈ 38.1 µM)
Candida albicans [7]
  MIC: 32 µg/mL
Aspergillus flavus [8]
  MIC: 64 µg/mL
Aspergillus fumigatus [9]
  MIC: 32 µg/mL
Cryptococcus neoformans [10]
  MIC: 64 µg/mL
Candida albicans [11]
  MIC: 64 µg/mL (≈ 152 µM)
Aspergillus flavus [12]
  MIC: 64 µg/mL (≈ 152 µM)
Aspergillus fumigatus [13]
  MIC: 64 µg/mL (≈ 152 µM)
Cryptococcus neoformans [14]
  MIC: 64 µg/mL (≈ 152 µM)
Candida albicans [15]
  MIC: 64 µg/mL (≈ 152 µM)
Candida albicans [16]
  MIC: 2 µg/mL
Aspergillus flavus [17]
  MIC: 2 µg/mL
Aspergillus fumigatus [18]
  MIC: 1 µg/mL
Cryptococcus neoformans [19]
  MIC: 8 µg/mL
Candida albicans [20]
  MIC: 2 µg/mL
Aspergillus flavus [21]
  MIC: 2 µg/mL
Aspergillus fumigatus [22]
  MIC: 2 µg/mL
Cryptococcus neoformans [23]
  MIC: 4 µg/mL
Cryptococcus neoformans [24]
  fractional inhibitory concentration index (FICI): 1
Candida albicans [25]
  fractional inhibitory concentration index (FICI): 1
Aspergillus flavus [26]
  fractional inhibitory concentration index (FICI): 0.75
Aspergillus fumigatus [27]
  fractional inhibitory concentration index (FICI): 0.75
Candida albicans [28]
  MIC: 2 µg/mL
Aspergillus flavus [29]
  MIC: 4 µg/mL
Aspergillus fumigatus [30]
  MIC: 2 µg/mL
Cryptococcus neoformans [31]
  MIC: 4 µg/mL
Candida albicans [32]
  fractional inhibitory concentration index (FICI): 1
Aspergillus flavus [33]
  fractional inhibitory concentration index (FICI): 1.5
Aspergillus fumigatus [34]
  fractional inhibitory concentration index (FICI): 1.5
Cryptococcus neoformans [35]
  fractional inhibitory concentration index (FICI): 0.75
Candida albicans [36]
  MIC: 4 µg/mL
Aspergillus flavus [37]
  MIC: 4 µg/mL
Aspergillus fumigatus [38]
  MIC: 8 µg/mL
Cryptococcus neoformans [39]
  MIC: 8 µg/mL
